The target in test [1] is T1, EGFR (Homo sapiens, UniProt P00533).
T1 construct: purchased Carna Biosciences, Inc; host or cells: insect cell expression system
The test can be described thus: Enzyme inhibitory activity on EGFR (time resolution fluorescence, biotinylated poly-Glu-Tyr substrate). The class given is biochemical. Particulars: EGFR purified from insect cell expression system; ATP solution 125 μM; room temperature, 60 minutes. The protocol:
(§1) Enzyme Inhibitory Activity of Test Compound on EGFR and HER2
(§2) EGFR and HER2 purified from an insect cell expression system, and a biotinylated substrate (synthetic peptide of glutamic acid:tyrosine=4:1) were added to a 384-well plate with ATP added thereto, and an enzyme reaction was performed at room temperature. After completion of the enzyme reaction, an anti-phosphorylated tyrosine antibody labeled with europium and streptavidin labeled with alphycocyanine were added, and a phosphorylated tyrosine residue was quantified by a time resolution fluorescence method.
(§3) A test compound was adjusted to 10 mM using DMSO.
(§4) Further, using 10% DMSO solution, a 1 mM solution was prepared, and this was regarded as a maximum concentration point.
(§5) As a dilution series, a 4-fold dilution series was prepared to a 10 stage.
(§6) As a buffer, TBS containing 10 mM MgCl2, 5 mM MnCl2, 0.2 mM Na3VO4, and 0.1% BSA was used.
(§7) As EGFR and HER2 enzymes, those purified from an insect cell expression system were purchased from Carna Biosciences, Inc.
An EGFR enzyme solution was adjusted to 250 ng/ml using a buffer.
(§8) As a substrate, biotinylated poly-Glu-Tyr (4:1, manufactured by CISbio) was used. A concentration was adjusted to 3.125 μg/ml using the above buffer.
An ATP concentration on study of the EGFR enzyme was adjusted to 125 μM using the buffer.
(§9) For preparing a detection reagent, TBS containing 30 mM EDTA, 0.8M KF and 0.1% BSA was used.
(§10) An anti-phosphorylated tyrosine antibody labeled with europium, PT-66K (CISbio) was adjusted to 195 ng/ml, and streptavidin labeled with alphycocyanine, SA-XL (CISbio) was adjusted to 5 μg/ml.
(§11) As an assay plate, a 384-well plate was used. Per one well, 1.1 μl of a test compound, 4 μl of a substrate solution, and 4 μl of an enzyme solution were added, and 2 μl of an ATP solution was added to initiate an enzyme reaction. The enzyme reaction was performed at room temperature for 60 minutes, and 10 μl of a detection reagent was added to complete the reaction. One hour after completion of the reaction, time resolution fluorescent measurement was performed.

Test [2] deals with T2, HER2 (Homo sapiens, UniProt P04626).
T2 construct: purchased Carna Biosciences, Inc; host or cells: insect cell expression system
T2 sequence (P04626 23-1255): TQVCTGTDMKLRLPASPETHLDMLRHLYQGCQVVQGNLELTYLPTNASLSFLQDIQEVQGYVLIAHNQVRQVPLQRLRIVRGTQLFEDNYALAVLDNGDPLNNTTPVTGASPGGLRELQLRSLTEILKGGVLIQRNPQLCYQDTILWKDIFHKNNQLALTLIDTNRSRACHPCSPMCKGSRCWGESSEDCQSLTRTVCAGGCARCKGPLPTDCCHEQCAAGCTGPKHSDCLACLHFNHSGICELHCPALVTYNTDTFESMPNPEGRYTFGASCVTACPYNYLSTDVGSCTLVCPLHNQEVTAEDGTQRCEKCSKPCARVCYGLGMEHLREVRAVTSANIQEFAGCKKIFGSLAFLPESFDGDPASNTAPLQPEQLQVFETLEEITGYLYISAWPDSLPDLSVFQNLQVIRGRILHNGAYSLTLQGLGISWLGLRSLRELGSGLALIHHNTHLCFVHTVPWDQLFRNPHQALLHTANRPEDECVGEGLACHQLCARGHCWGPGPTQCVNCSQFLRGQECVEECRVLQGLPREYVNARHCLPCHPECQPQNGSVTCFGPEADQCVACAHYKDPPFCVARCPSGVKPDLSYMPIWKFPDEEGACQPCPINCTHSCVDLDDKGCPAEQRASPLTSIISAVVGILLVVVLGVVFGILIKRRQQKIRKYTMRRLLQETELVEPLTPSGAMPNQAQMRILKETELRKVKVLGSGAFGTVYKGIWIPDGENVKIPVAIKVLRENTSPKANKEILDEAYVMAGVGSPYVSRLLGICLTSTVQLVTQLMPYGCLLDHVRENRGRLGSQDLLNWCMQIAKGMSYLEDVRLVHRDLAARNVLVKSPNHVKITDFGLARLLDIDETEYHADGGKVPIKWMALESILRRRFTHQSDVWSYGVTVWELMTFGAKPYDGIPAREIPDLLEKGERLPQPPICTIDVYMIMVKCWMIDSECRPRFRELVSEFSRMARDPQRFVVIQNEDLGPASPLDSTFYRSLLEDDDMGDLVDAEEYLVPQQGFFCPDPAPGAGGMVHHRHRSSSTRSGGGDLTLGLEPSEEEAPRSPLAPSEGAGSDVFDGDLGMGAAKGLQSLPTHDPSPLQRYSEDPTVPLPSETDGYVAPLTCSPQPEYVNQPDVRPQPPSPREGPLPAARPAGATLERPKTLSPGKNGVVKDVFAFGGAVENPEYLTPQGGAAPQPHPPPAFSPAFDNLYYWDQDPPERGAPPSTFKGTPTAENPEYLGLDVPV
Put plainly: Enzyme inhibitory activity on HER2 (time resolution fluorescence, biotinylated poly-Glu-Tyr substrate). The class given is biochemical. Particulars: HER2 purified from insect cell expression system; ATP solution 290 μM; room temperature, 60 minutes. The protocol: as §1, §2, §3, §4, §5, §6, §7
HER2 kinase was adjusted to 1000 ng/ml using a buffer.
as §8
An ATP concentration on study of the HER2 enzyme was adjusted to 290 μM.
as §9, §10, §11

Test [3] concerns BT-474. Put plainly: In vitro cell proliferation inhibition, WST assay. It is filed as cell-based, human. The following applies: BT-474 cells, cultured for 3 days, read-out: BT-474 (nM) proliferation inhibitory activity (IC50 value). Here is the method: Test of In Vitro Cell Proliferation Inhibition of Test Compound
As a human-derived cancer cell strain, BT-474 was used. Cells were all cultured in a 37° C., 5% CO2 incubator in a medium in which 10% bovine fetal serum (ICN) and 50 units ml penicillin/60 μg/ml streptomycin solution (GIBCO) were added to Dulbecco's Modified Essential Medium (DMEM, Nacalai Tesque, Inc).

Where two headings read alike, the source gives them in different places.

T1 sequence (P00533 25-1210): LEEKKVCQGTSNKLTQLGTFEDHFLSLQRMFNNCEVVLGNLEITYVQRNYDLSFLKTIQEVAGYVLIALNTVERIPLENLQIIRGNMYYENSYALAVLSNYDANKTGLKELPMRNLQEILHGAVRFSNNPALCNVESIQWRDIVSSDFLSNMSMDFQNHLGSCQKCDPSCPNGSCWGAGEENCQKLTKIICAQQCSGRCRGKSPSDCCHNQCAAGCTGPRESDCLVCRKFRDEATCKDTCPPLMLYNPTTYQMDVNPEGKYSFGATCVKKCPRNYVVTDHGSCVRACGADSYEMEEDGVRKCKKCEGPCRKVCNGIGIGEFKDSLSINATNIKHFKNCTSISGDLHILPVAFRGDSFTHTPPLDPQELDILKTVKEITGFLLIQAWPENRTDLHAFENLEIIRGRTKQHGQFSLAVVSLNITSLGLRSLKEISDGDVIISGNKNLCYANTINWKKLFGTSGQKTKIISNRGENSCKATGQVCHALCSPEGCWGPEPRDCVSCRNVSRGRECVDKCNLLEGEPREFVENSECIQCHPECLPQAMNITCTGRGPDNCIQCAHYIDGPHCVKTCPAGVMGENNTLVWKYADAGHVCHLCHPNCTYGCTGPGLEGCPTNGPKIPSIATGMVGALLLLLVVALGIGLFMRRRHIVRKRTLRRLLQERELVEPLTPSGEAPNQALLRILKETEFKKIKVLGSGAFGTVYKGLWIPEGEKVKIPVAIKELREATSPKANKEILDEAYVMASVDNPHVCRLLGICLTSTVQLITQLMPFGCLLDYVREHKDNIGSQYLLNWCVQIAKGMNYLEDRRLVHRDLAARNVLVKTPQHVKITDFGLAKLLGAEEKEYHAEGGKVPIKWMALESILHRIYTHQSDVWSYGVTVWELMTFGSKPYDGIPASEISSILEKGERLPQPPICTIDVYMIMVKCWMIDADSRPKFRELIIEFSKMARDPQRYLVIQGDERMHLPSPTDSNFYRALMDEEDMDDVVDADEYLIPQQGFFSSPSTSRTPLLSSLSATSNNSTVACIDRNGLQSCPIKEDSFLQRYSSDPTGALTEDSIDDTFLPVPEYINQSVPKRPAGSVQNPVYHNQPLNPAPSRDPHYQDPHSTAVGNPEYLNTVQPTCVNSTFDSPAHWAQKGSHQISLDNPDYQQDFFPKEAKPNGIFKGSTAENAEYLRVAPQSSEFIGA

For `CC#C/C(=N\OC[C@@H](COC)NC)c1ccc2ncnc(Nc3ccc(OCc4cccc(F)c4)c(Cl)c3)c2c1` [VIII-56], the results for the IC50 in test [1], in test [2] and in test [3] were 7.9 nM, 13.8 nM and 14 nM, respectively.

Take `CC#C/C(=N\OCCNCC(F)(F)F)c1ccc2ncnc(Nc3ccc(OCc4cccc(F)c4)c(Cl)c3)c2c1` [VIII-57]: the IC50 worked out at 301 nM in test [1], 303 nM in test [2] and 15 nM in test [3].

In the case of `CC#CC(=NOCCNC(=NC#N)NC)c1ccc2ncnc(Nc3ccc(OCc4cccc(F)c4)c(Cl)c3)c2c1` [VIII-58], the IC50 was 207 nM in test [1]; 236 nM in test [2]; 37 nM in test [3] (Homo sapiens, BT-474, 72 h).

For the compound `CC#C/C(=N\OCCNC[C@@H]1COC(=O)N1)c1ccc2ncnc(Nc3ccc(OCc4cccc(F)c4)c(Cl)c3)c2c1` [VIII-59], the IC50 was determined as 115 nM in test [1], 278 nM in test [2] and 11 nM in test [3].

On to `CC#C/C(=N\OCCNC1CCN(S(C)(=O)=O)CC1)c1ccc2ncnc(Nc3ccc(OCc4cccc(F)c4)c(Cl)c3)c2c1` [VIII-60], for which the IC50 in test [1] stood at 54 nM; in test [2], 30 nM; in test [3], 14 nM.

For the compound `CC#C/C(=N\OCCNC1CCN(C(C)=O)CC1)c1ccc2ncnc(Nc3ccc(OCc4cccc(F)c4)c(Cl)c3)c2c1` [VIII-61], the IC50 was 30 nM in test [1], 24 nM in test [2] and 11 nM in test [3].

As to `CC#CC(=NOCCNCC(C)CO)c1ccc2ncnc(Nc3ccc(OCc4cccc(F)c4)c(Cl)c3)c2c1` (stereo not drawn) [VIII-62], the IC50 came to 22 nM in test [1], 22 nM in test [2] and 12 nM in test [3].

For the compound `CC#C/C(=N\OCCNC[C@H](C)CO)c1ccc2ncnc(Nc3ccc(OCc4cccc(F)c4)c(Cl)c3)c2c1` [VIII-63], the IC50 in test [1] is 9.6 nM; in test [2], 9.2 nM; in test [3] (Homo sapiens, BT-474, 72 h) it was 13 nM.

For `CC#C/C(=N\OCCN(CC)CCOC)c1ccc2ncnc(Nc3ccc(OCc4cccc(F)c4)c(Cl)c3)c2c1` [VIII-65], the IC50 in test [1] stood at 97 nM; in test [2] it was 98 nM; in test [3], 30 nM.

`CC#C/C(=N\OCCCNC)c1ccc2ncnc(Nc3ccc(OCc4cccc(F)c4)c(Cl)c3)c2c1` [VIII-67]: the IC50 in test [1] amounted to 16 nM; in test [2] it was 14 nM; in test [3] it was 32 nM.

In the case of `CC#C/C(=N\OC1CNC1)c1ccc2ncnc(Nc3ccc(OCc4cccc(F)c4)c(Cl)c3)c2c1` [VIII-68], the IC50 was 19 nM in test [1], 25 nM in test [2] and 41 nM in test [3].

`CC#C/C(=N\OCCN1CCC[C@@H]1CO)c1ccc2ncnc(Nc3ccc(OCc4cccc(F)c4)c(Cl)c3)c2c1` [VIII-69]: the IC50 in test [1] stood at 43 nM; in test [2] it was 28 nM; in test [3] (Homo sapiens, BT-474, 72 h) it was 16 nM.

As for `CC#CC(=NOCCN1CCC(NC(C)=O)C1)c1ccc2ncnc(Nc3ccc(OCc4cccc(F)c4)c(Cl)c3)c2c1` (stereo not drawn) [VIII-70], the results for the IC50 in test [1], in test [2] and in test [3] were 63 nM, 31 nM and 7 nM, respectively.

With `CC#C/C(=N\OCCN1CC[C@@H](OC(N)=O)C1)c1ccc2ncnc(Nc3ccc(OCc4cccc(F)c4)c(Cl)c3)c2c1` [VIII-71], the IC50 came to 130 nM in test [1]; 199 nM in test [2]; 17 nM in test [3] (Homo sapiens, BT-474, 72 h).

Turning to `CC#C/C(=N\OC[C@@H]1CCCN1)c1ccc2ncnc(Nc3ccc(OCc4cccc(F)c4)c(Cl)c3)c2c1` [VIII-72], the results for the IC50 in test [1], in test [2] and in test [3] were 6.3 nM, 11 nM and 21 nM, respectively.

For the compound `CC#C/C(=N\OC[C@@H]1CCCN1CC#N)c1ccc2ncnc(Nc3ccc(OCc4cccc(F)c4)c(Cl)c3)c2c1` [VIII-73], the IC50 in test [1] was found to be 275 nM; in test [2] it was 199 nM; in test [3], 12 nM.

With `CC#C/C(=N\OC[C@@H]1CCCN1CCOC)c1ccc2ncnc(Nc3ccc(OCc4cccc(F)c4)c(Cl)c3)c2c1` [VIII-74], the IC50 is 164 nM in test [1]; 150 nM in test [2]; 28 nM in test [3] (Homo sapiens, BT-474, 72 h).

These data come from US8202879B2, “Quinazoline derivatives having tyrosine kinase inhibitory activity” (Shionogi & Co., Ltd., priority 2005, dated 2012).
